Columns and labels:
[1] = system: naive rats (Wistar); experiment: Fear conditioning + extinction + stabilization (PTSD model); assay type: in vivo, rat; settings: for Percentage of time of tetany (freezing) during the stabilization phase: 10 mg/kg
Source text: Several animal models have been developed to mimic the traumatic events that induce intense and recurrent fear symptoms characteristic of PTSD. • Pavlovian fear conditioning of the animals: This animal model consists of Pavlovian-type fear conditioning (Zovkic, Neuropsychopharmacology Reviews (2013) 38, 77-93): mice (or rats) are trained to associate exposure to danger (electric shock, etc.) with the presence of a specific cue or environment (sound cue for example). The memory of this association (danger-cue) is later tested by measuring tetany behavior (through fear) when the animal is re-exposed to the conditioning cue in the absence of real danger.
Again, the occurrence of symptoms of PTSD are assessed after a certain period of time, without exposure to the hazard, to simulate the long-term onset of PTSD pathology. • Fear extinction: After a fear conditioning as described above it can be of interest to apply a protocol to extinguish this fear. Classically, this phase is placed 24 hours after the conditioning phase.
The extinction protocols model the relearning of the normal (non-fear-motivated) response to the cue (sound) and are very useful in modeling PTSD. • Fear stabilization: It can be useful, to assess the performance of a treatment, to add a stabilization phase after the extinction phase, spaced 24 h apart. Typically, this phase puts the animals back under the extinction phase conditions. It then allows the detection of staggered performances of the treatments, but also of the resurgence of tetany (rebound effect).
In the following examples, the effects of memantine, propranolol and fluoroethylnormemantine (FENM, the subject of the present invention) are studied in naive rats (Wistar) subjected to various tests related to depression or anxiety and then compared.
The test substances are administered to rats intraperitoneally in a volume of 5 ml/kg, 30 minutes before the behavioral tests are performed.
The injected solutions contain either of the molecules in the form of one of their salts, a hydrochloride (memantine·HCl and FENM·HCl) for the nitrogen derivatives and as such for propranolol, at the concentrations indicated below in a mixture of 95% (NaCl 0.9% ww in water)/5% ethanol. In each experiment, the dose per kilogram is referenced.
The applicant used a fear conditioning test in which the clue (neutral conditional stimulus) is a sound, coupled with a danger (aversive unconditional stimulus) which is an electric shock delivered by the floor of the box. This conditioning is followed by a fear extinction phase with injection of the treatment solutions to be tested and then by a test phase itself. • Fear Conditioning Phase (FC): fear conditioning takes place in a standard conditioning box (context A, white box in Table 7) and the rats (8 per group) are subjected to 3 “sound-electroshock” pairs at times of 180 s, 381 s and 582 s after being placed in the box. Each sound lasts 20 s and each electroshock lasts 1 s with a current of 1 mA. • The fear extinction phase (Ext.) is conducted as follows: the rats are placed in a box similar to the one that will be used for the final test (context B, pink box in Table 7), for a 25-minute session. During this session, 24 presentations are made with the same sound as that used during the conditioning session (20 s each, 35 s apart). Of course, no electric shock is delivered, and the percentage of time of tetany (“freezing”) during the phase is recorded. • Stabilization phase: the day after the extinction phase, 30 minutes before the test phase, […] of 3 sounds (same sequence as used for conditioning), recording the percentage of time they remain still during this test phase. […]

[2] = system: naive rats (Wistar); settings: 5 mg/kg, only after 7 days of treatment; cited from earlier work

| SMILES | Percentage of time of tetany (freezing) during the stabilization phase ([1]; Early treatment: one injection 30 minutes before the extinction phase) [%] | Percentage of time of tetany (freezing) during the stabilization phase ([1]; Late treatment: one injection 30 minutes before the stabilization phase) [%] | Percentage of time of tetany (freezing) during the stabilization phase ([1]; Protective effect: one injection 30 minutes before the conditioning phase) [%] | tetany in the stabilization phase compared with control ([1]; administered at conditioning, early or late post-traumatic treatment) | tetany during the extinction phase ([1]; administered during the extinction phase, effect lost during the stabilization phase) | anxiolytic activity (light-dark box, for comparison) [2] |
| --- | --- | --- | --- | --- | --- | --- |
| CC(C)NCC(O)COc1cccc2ccccc12 (stereo not drawn) [Propranolol, propranolol, reference compound] | 26 | 29 | 28 | does not differentiate from the control | reduces tetany |  |
| CNCCC(Oc1ccc(C(F)(F)F)cc1)c1ccccc1 (stereo not drawn) [fluoxetine] |  |  |  |  |  | anxiolytic activity |

From patent publication US11464751B2, “Use of fluoroethylnormemantine for the prevention and treatment of anxiety” (REST THERAPEUTICS, priority 2017, dated 2022)
